According to the supplement of paper PMC10307832:

Legend:
Assay in all cases: relative viability (nuclei count vs DMSO), 5 days (fraction); higher = more cells survive
Carfilzomib + Lapatinib = compound: CC(C)C[C@H](NC(=O)[C@H](CCc1ccccc1)NC(=O)CN1CCOCC1)C(=O)N[C@@H](Cc1ccccc1)C(=O)N[C@@H](CC(C)C)C(=O)[C@@]1(C)CO1 [Carfilzomib] + CS(=O)(=O)CCNCc1ccc(-c2ccc3ncnc(Nc4ccc(OCc5cccc(F)c5)c(Cl)c4)c3c2)o1 [Lapatinib] (partner 2 µM)
How it was run: (§1)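 After 5 days of treatment, lung cancer cells in 1536-well plates were fixed and stained in a single step (final 0.05% Triton X-100, 1% formaldehyde, 1 ug/ml Hoechst) and their nuclei counted on 4× images. Treatment had been applied by pin tool the day after seeding as one drug alone or as a fixed anchor-drug dose with five library-drug doses (not always all listed) in √10 steps. Relative viability is the nuclei count of treated wells divided by that of vehicle wells, and values are medians of duplicate plates.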

Olaparib + Phenformin = compound: O=C(c1cc(Cc2n[nH]c(=O)c3ccccc23)ccc1F)N1CCN(C(=O)C2CC2)CC1 [Olaparib] + N=C(N)NC(=N)NCCc1ccccc1 [Phenformin] (partner 250 µM)
How it was run: as §1

Carfilzomib + Trametinib = compound: CC(C)C[C@H](NC(=O)[C@H](CCc1ccccc1)NC(=O)CN1CCOCC1)C(=O)N[C@@H](Cc1ccccc1)C(=O)N[C@@H](CC(C)C)C(=O)[C@@]1(C)CO1 [Carfilzomib] + CC(=O)Nc1cccc(-n2c(=O)n(C3CC3)c(=O)c3c(Nc4ccc(I)cc4F)n(C)c(=O)c(C)c32)c1 [Trametinib] (partner 0.02 µM)
How it was run: as §1

Olaparib + Palbociclib = compound: O=C(c1cc(Cc2n[nH]c(=O)c3ccccc23)ccc1F)N1CCN(C(=O)C2CC2)CC1 [Olaparib] + CC(=O)c1c(C)c2cnc(Nc3ccc(N4CCNCC4)cn3)nc2n(C2CCCC2)c1=O [Palbociclib] (partner 0.5 µM)
How it was run: as §1

Cell Line	relative viability (Carfilzomib + Lapatinib; first compound 0.001 µM)	relative viability (Carfilzomib + Lapatinib; first compound 0.003162 µM)	relative viability (Carfilzomib + Lapatinib; first compound 0.01 µM)	relative viability (Carfilzomib + Lapatinib; first compound 0.03162 µM)	relative viability (Carfilzomib + Lapatinib; first compound 0.1 µM)	relative viability (Olaparib + Phenformin; first compound 0.08 µM)	relative viability (Olaparib + Phenformin; first compound 0.253 µM)	relative viability (Olaparib + Phenformin; first compound 2.53 µM)	relative viability (Olaparib + Phenformin; first compound 8 µM)	relative viability (Carfilzomib + Trametinib; first compound 0.001 µM)	relative viability (Carfilzomib + Trametinib; first compound 0.003162 µM)	relative viability (Carfilzomib + Trametinib; first compound 0.01 µM)	relative viability (Carfilzomib + Trametinib; first compound 0.1 µM)	relative viability (Olaparib + Palbociclib; first compound 0.08 µM)	relative viability (Olaparib + Palbociclib; first compound 0.253 µM)	relative viability (Olaparib + Palbociclib; first compound 2.53 µM)	relative viability (Olaparib + Palbociclib; first compound 8 µM)	relative viability (Carfilzomib + Trametinib; first compound 0.03162 µM)
EBC-1	0.228	0.203	0.208	0.169	0.144	–	–	–	–	–	–	–	–	–	–	–	–	–
EKVX	0.221	0.416	0.212	0.183	0.137	0.268	0.243	0.221	0.248	0.338	0.418	0.368	0.172	0.38	0.364	0.371	0.41	–
IA-LM	0.846	0.667	0.434	0.0463	0.081	–	–	–	–	–	–	–	–	–	–	–	–	–
LCLC-103H	–	–	–	–	–	0.406	0.309	0.36	0.306	0.688	0.643	0.72	0.557	0.524	0.455	0.513	0.494	0.642
NCI-H441	–	–	–	–	–	0.824	0.873	0.951	0.706	0.554	0.445	0.236	0.115	0.268	0.257	0.234	0.243	0.103
NCI-H522	–	–	–	–	–	0.665	0.722	0.582	0.562	0.777	0.767	0.815	0.336	1.14	0.859	0.87	0.889	0.506
NCI-H596	0.965	1.03	1.01	0.805	0.207	0.76	0.732	0.653	0.66	0.785	0.804	0.952	0.205	–	–	–	–	0.69
NCI-H1299	0.98	1.01	0.982	0.681	0.147	–	–	–	–	–	–	–	–	–	–	–	–	–
NCI-H1563	0.926	1.1	0.927	0.771	0.506	0.677	0.657	0.681	0.734	–	–	–	–	–	–	–	–	–
NCI-H1623	–	–	–	–	–	0.582	0.619	0.497	0.474	–	–	–	–	–	–	–	–	–
NCI-H1648	–	–	–	–	–	–	–	–	–	0.685	0.566	0.592	0.261	0.236	0.305	–	0.246	0.394
NCI-H1703	1.02	1.19	0.207	0.149	0.173	–	–	–	–	–	–	–	–	–	–	–	–	–
NCI-H2342	–	–	–	–	–	0.577	0.503	0.544	0.598	0.844	0.851	0.862	0.633	0.532	0.503	0.471	0.474	0.949
SW 900	–	–	–	–	–	0.614	0.525	0.558	0.555	–	0.804	0.163	0.126	0.606	0.492	0.595	0.476	0.177
